{"source": "PubChem BioAssay (NCI)", "test_in_all_cases": "NCI tumour cell line growth inhibition, 48 h", "key": {"[1]": {"test_system": "U251 CNS"}, "[2]": {"test_system": "OVCAR-4 ovarian"}, "[3]": {"test_system": "NCI-H226 lung"}, "[4]": {"test_system": "DMS 114 small cell lung"}, "[5]": {"test_system": "UO-31 renal"}, "[6]": {"test_system": "MALME-3M melanoma"}, "[7]": {"test_system": "SN12C renal"}, "[8]": {"test_system": "HCT-116 colon"}, "[9]": {"test_system": "SK-MEL-28 melanoma"}, "[10]": {"test_system": "EKVX NSCLC"}, "[11]": {"test_system": "NCI-H23 lung"}, "[12]": {"test_system": "M19-MEL melanoma"}, "[13]": {"test_system": "LOX IMVI melanoma"}, "[14]": {"test_system": "P388/ADR leukemia"}, "[15]": {"test_system": "SNB-19 CNS"}, "[16]": {"test_system": "OVCAR-5 ovarian"}, "[17]": {"test_system": "NCI-H522 lung"}, "[18]": {"test_system": "SF-539 CNS"}, "[19]": {"test_system": "CCRF-CEM leukemia"}, "[20]": {"test_system": "COLO 205 colon"}, "[21]": {"test_system": "OVCAR-3 ovarian"}, "[22]": {"test_system": "KM20L2 colon"}, "[23]": {"test_system": "NCI/ADR-RES ovarian"}, "[24]": {"test_system": "DLD-1 colon"}, "[25]": {"test_system": "SK-OV-3 ovarian"}, "[26]": {"test_system": "NCI-H460 lung"}, "[27]": {"test_system": "IGROV1 ovarian"}, "[28]": {"test_system": "HL-60(TB) leukemia"}, "[29]": {"test_system": "HCC-2998 colon"}, "[30]": {"test_system": "SW-620 colon"}, "[31]": {"test_system": "SF-268 CNS"}, "[32]": {"test_system": "A549 NSCLC"}, "[33]": {"test_system": "HCT-15 colon"}, "[34]": {"test_system": "A498 renal"}, "[35]": {"test_system": "MCF7 breast"}, "[36]": {"test_system": "HOP-62 NSCLC"}, "[37]": {"test_system": "MOLT-4 leukemia"}, "[38]": {"test_system": "RXF 393 renal"}, "[39]": {"test_system": "HOP-92 NSCLC"}, "[40]": {"test_system": "SF-295 CNS"}, "[41]": {"test_system": "SN12K1 renal"}, "[42]": {"test_system": "UACC-257 melanoma"}, "[43]": {"test_system": "HT29 colon"}, "[44]": {"test_system": "UACC-62 melanoma"}, "[45]": {"test_system": "RPMI-8226 leukemia"}, "[46]": {"test_system": "SNB-78 CNS"}, "[47]": {"test_system": "P388 leukemia"}, "[48]": {"test_system": "SK-MEL-5 melanoma"}, "[49]": {"test_system": "OVCAR-8 ovarian"}, "[50]": {"test_system": "SNB-75 CNS"}, "[51]": {"test_system": "DMS 273 small cell lung"}, "[52]": {"test_system": "SK-MEL-2 melanoma"}, "[53]": {"test_system": "KM12 colon"}, "[54]": {"test_system": "K-562 leukemia"}}, "note": "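Following 48 hours of exposure in 96-well plates, responses at five concentrations were used to interpolate endpoints linearly. TGI: total growth inhibition.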"}
{"smiles": "CCCCCCCCC1=CCC(CN(C)C)C1=O", "note": "(centres undefined)", "values": [{"measurement": "TGI", "setting": "[1]", "value": 32.8, "unit": "µM"}, {"measurement": "TGI", "setting": "[2]", "value": 50.8, "unit": "µM"}, {"measurement": "TGI", "setting": "[3]", "value": "> 76.3", "unit": "µM"}, {"measurement": "TGI", "setting": "[4]", "value": 34.4, "unit": "µM"}, {"measurement": "TGI", "setting": "[5]", "value": 39.2, "unit": "µM"}, {"measurement": "TGI", "setting": "[6]", "value": 32.3, "unit": "µM"}, {"measurement": "TGI", "setting": "[7]", "value": 32.4, "unit": "µM"}, {"measurement": "TGI", "setting": "[8]", "value": 36.5, "unit": "µM"}, {"measurement": "TGI", "setting": "[9]", "value": 38.2, "unit": "µM"}, {"measurement": "TGI", "setting": "[10]", "value": 48.1, "unit": "µM"}, {"measurement": "TGI", "setting": "[11]", "value": 39.2, "unit": "µM"}, {"measurement": "TGI", "setting": "[12]", "value": 32.3, "unit": "µM"}, {"measurement": "TGI", "setting": "[13]", "value": 33.7, "unit": "µM"}, {"measurement": "TGI", "setting": "[14]", "value": 15, "unit": "µM"}, {"measurement": "TGI", "setting": "[15]", "value": "> 79", "unit": "µM"}, {"measurement": "TGI", "setting": "[16]", "value": "> 72.4", "unit": "µM"}, {"measurement": "TGI", "setting": "[17]", "value": 31.3, "unit": "µM"}, {"measurement": "TGI", "setting": "[18]", "value": 36.9, "unit": "µM"}, {"measurement": "TGI", "setting": "[19]", "value": "> 60.1", "unit": "µM"}, {"measurement": "TGI", "setting": "[20]", "value": 33.9, "unit": "µM"}, {"measurement": "TGI", "setting": "[21]", "value": 34.3, "unit": "µM"}, {"measurement": "TGI", "setting": "[22]", "value": 47.4, "unit": "µM"}, {"measurement": "TGI", "setting": "[23]", "value": 41.7, "unit": "µM"}, {"measurement": "TGI", "setting": "[24]", "value": 35, "unit": "µM"}, {"measurement": "TGI", "setting": "[25]", "value": "> 100", "unit": "µM"}, {"measurement": "TGI", "setting": "[26]", "value": 26.1, "unit": "µM"}, {"measurement": "TGI", "setting": "[27]", "value": 35.9, "unit": "µM"}, {"measurement": "TGI", "setting": "[28]", "value": 33.8, "unit": "µM"}, {"measurement": "TGI", "setting": "[29]", "value": 27.7, "unit": "µM"}, {"measurement": "TGI", "setting": "[30]", "value": 36.6, "unit": "µM"}, {"measurement": "TGI", "setting": "[31]", "value": 34.7, "unit": "µM"}, {"measurement": "TGI", "setting": "[32]", "value": "> 100", "unit": "µM"}, {"measurement": "TGI", "setting": "[33]", "value": 33.7, "unit": "µM"}, {"measurement": "TGI", "setting": "[34]", "value": "> 58.4", "unit": "µM"}, {"measurement": "TGI", "setting": "[35]", "value": 13.6, "unit": "µM"}, {"measurement": "TGI", "setting": "[36]", "value": "> 31.6", "unit": "µM"}, {"measurement": "TGI", "setting": "[37]", "value": 48.2, "unit": "µM"}, {"measurement": "TGI", "setting": "[38]", "value": 36, "unit": "µM"}, {"measurement": "TGI", "setting": "[39]", "value": 31, "unit": "µM"}, {"measurement": "TGI", "setting": "[40]", "value": "> 60.7", "unit": "µM"}, {"measurement": "TGI", "setting": "[41]", "value": 32.1, "unit": "µM"}, {"measurement": "TGI", "setting": "[42]", "value": 45.7, "unit": "µM"}, {"measurement": "TGI", "setting": "[43]", "value": 35.4, "unit": "µM"}, {"measurement": "TGI", "setting": "[44]", "value": 33.2, "unit": "µM"}, {"measurement": "TGI", "setting": "[45]", "value": 4.2, "unit": "µM"}, {"measurement": "TGI", "setting": "[46]", "value": 46.4, "unit": "µM"}, {"measurement": "TGI", "setting": "[47]", "value": 46.5, "unit": "µM"}, {"measurement": "TGI", "setting": "[48]", "value": 41.4, "unit": "µM"}, {"measurement": "TGI", "setting": "[49]", "value": 34.9, "unit": "µM"}, {"measurement": "TGI", "setting": "[50]", "value": 32.1, "unit": "µM"}, {"measurement": "TGI", "setting": "[51]", "value": 35.3, "unit": "µM"}, {"measurement": "TGI", "setting": "[52]", "value": 46.1, "unit": "µM"}, {"measurement": "TGI", "setting": "[53]", "value": 38, "unit": "µM"}, {"measurement": "TGI", "setting": "[54]", "value": 59, "unit": "µM"}]}
